Source: the supplement of paper PMC10307832

Legend:
Assay in all cases: relative viability (nuclei count vs DMSO), 5 days (fraction); higher = more cells survive
Bortezomib + Pemetrexed = compound: CC(C)C[C@H](NC(=O)[C@H](Cc1ccccc1)NC(=O)c1cnccn1)B(O)O [Bortezomib] + Nc1nc2[nH]cc(CCc3ccc(C(=O)N[C@@H](CCC(=O)O)C(=O)O)cc3)c2c(=O)[nH]1 [Pemetrexed] (partner 0.2 µM)
How it was run: (§1)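 One day after seeding in 1536-well plates, lung cancer cell lines were dosed by pin tool. Dosing was either single-drug or a fixed anchor-drug dose plus five library-drug doses (not always all listed) in √10 steps. After 5 days, nuclei were stained in one fix-and-stain step and counted on 4× images, and relative viability is the nuclei count of treated wells over that of vehicle wells, given as the median of duplicate plates.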

Bortezomib + Pictilisib = compound: CC(C)C[C@H](NC(=O)[C@H](Cc1ccccc1)NC(=O)c1cnccn1)B(O)O [Bortezomib] + CS(=O)(=O)N1CCN(Cc2cc3nc(-c4cccc5[nH]ncc45)nc(N4CCOCC4)c3s2)CC1 [Pictilisib] (partner 1 µM)
How it was run: as §1

Obatoclax + Luminespib = compound: COC1=CC(c2cc3ccccc3[nH]2)=N/C1=C\c1[nH]c(C)cc1C [Obatoclax] + CCNC(=O)c1noc(-c2cc(C(C)C)c(O)cc2O)c1-c1ccc(CN2CCOCC2)cc1 [Luminespib] (partner 0.01 µM)
How it was run: as §1

[1] = compound: CC1=CC(=NN1)NC2=CC(=NC(=N2)/C=C/C3=CC=CC=C3)N4CCN(CC4)C + CCNC(=O)c1noc(-c2cc(C(C)C)c(O)cc2O)c1-c1ccc(CN2CCOCC2)cc1 [Luminespib] (partner 0.01 µM)
How it was run: as §1

Cell Line	relative viability (Bortezomib + Pemetrexed; first compound 0.0002 µM)	relative viability (Bortezomib + Pemetrexed; first compound 0.000632 µM)	relative viability (Bortezomib + Pemetrexed; first compound 0.002 µM)	relative viability (Bortezomib + Pemetrexed; first compound 0.006325 µM)	relative viability (Bortezomib + Pemetrexed; first compound 0.02 µM)	relative viability (Bortezomib + Pictilisib; first compound 0.0002 µM)	relative viability (Bortezomib + Pictilisib; first compound 0.000632 µM)	relative viability (Bortezomib + Pictilisib; first compound 0.002 µM)	relative viability (Bortezomib + Pictilisib; first compound 0.006325 µM)	relative viability (Bortezomib + Pictilisib; first compound 0.02 µM)	relative viability (Obatoclax + Luminespib; first compound 0.01 µM)	relative viability (Obatoclax + Luminespib; first compound 0.03162 µM)	relative viability (Obatoclax + Luminespib; first compound 0.1 µM)	relative viability (Obatoclax + Luminespib; first compound 0.3162 µM)	relative viability (Obatoclax + Luminespib; first compound 1 µM)	relative viability ([1]; first compound 0.08 µM)	relative viability ([1]; first compound 0.253 µM)	relative viability ([1]; first compound 0.8 µM)	relative viability ([1]; first compound 2.53 µM)	relative viability ([1]; first compound 8 µM)
NCI-H3122	0.2	0.202	0.195	0.171	0.117	0.547	0.654	0.688	0.62	0.167	0.0984	0.0854	0.0999	0.0772	0.0894	0.0829	0.0907	0.096	0.0908	0.0887
PC-3 [JPC-3]	1.02	1.14	0.727	0.196	0.184	0.795	0.762	0.804	0.281	0.26	0.652	0.606	0.742	0.683	0.745	0.684	0.834	0.736	0.686	0.549
PC-14	0.126	0.142	0.166	0.0636	0.078	0.685	0.726	0.632	0.0319	0.0362	0.132	0.138	0.148	0.13	0.146	0.169	0.158	0.12	0.121	0.0829
RERF-LC-KJ	0.673	0.459	0.464	0.347	0.358	0.573	0.528	0.523	0.171	0.203	1.07	1.32	1.04	0.583	0.554	1.33	1.2	0.944	0.269	0.264
SK-LU-1	0.911	0.984	0.704	0.188	0.161	0.521	0.528	0.503	0.166	0.14	0.195	0.205	0.173	0.173	0.11	0.204	0.192	0.136	0.148	0.0748
SK-MES-1	0.956	1.02	0.915	0.211	0.167	0.337	0.303	0.347	0.148	0.143	0.737	0.837	0.677	0.298	0.252	0.61	0.888	0.391	0.144	0.131
SW 1573	0.844	0.993	0.76	0.0663	0.0512	0.516	0.496	0.399	0.0724	0.0556	0.26	0.442	0.206	0.188	0.164	0.421	0.259	0.179	0.105	0.0707
UMC-11	0.694	0.875	0.745	0.39	0.17	0.703	0.751	0.741	0.393	0.138	0.993	0.968	1.05	1.07	0.428	0.903	0.996	0.715	0.182	0.125
